# In PubChem BioAssay (NCI):
#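 Compound exposure: 48 hours, 5 concentrations, 96-well plates. TGI: concentration producing complete growth inhibition.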
# How the values were obtained:
# Assay in all cases: NCI-60 cell line screen, 48 h
# [1] = system: 786-0 renal
# [2] = system: A498 renal
# [3] = system: A549 NSCLC
# [4] = system: ACHN renal
# [5] = system: BT-549 breast
# [6] = system: CAKI-1 renal
# [7] = system: CCRF-CEM leukemia
# [8] = system: COLO 205 colon
# [9] = system: DU-145 prostate
# [10] = system: EKVX NSCLC
# [11] = system: HCC-2998 colon
# [12] = system: HCT-116 colon
# [13] = system: HCT-15 colon
# [14] = system: HOP-62 NSCLC
# [15] = system: HOP-92 NSCLC
# [16] = system: HS 578T breast
# [17] = system: HT29 colon
# [18] = system: IGROV1 ovarian
# [19] = system: K-562 leukemia
# [20] = system: KM12 colon
# [21] = system: LOX IMVI melanoma
# [22] = system: M14 melanoma
# [23] = system: MALME-3M melanoma
# [24] = system: MCF7 breast
# [25] = system: MDA-MB-231 breast
# [26] = system: MDA-MB-435
# [27] = system: MDA-N
# [28] = system: MOLT-4 leukemia
# [29] = system: NCI-H23 lung
# [30] = system: NCI-H460 lung
# [31] = system: NCI-H522 lung
# [32] = system: NCI/ADR-RES ovarian
# [33] = system: OVCAR-3 ovarian
# [34] = system: OVCAR-4 ovarian
# [35] = system: OVCAR-5 ovarian
# [36] = system: OVCAR-8 ovarian
# [37] = system: PC-3 prostate
# [38] = system: RPMI-8226 leukemia
# [39] = system: RXF 393 renal
# [40] = system: SF-268 CNS
# [41] = system: SF-295 CNS
# [42] = system: SF-539 CNS
# [43] = system: SK-MEL-2 melanoma
# [44] = system: SK-MEL-28 melanoma
# [45] = system: SK-MEL-5 melanoma
# [46] = system: SK-OV-3 ovarian
# [47] = system: SN12C renal
# [48] = system: SNB-19 CNS
# [49] = system: SNB-75 CNS
# [50] = system: SR leukemia
# [51] = system: SW-620 colon
# [52] = system: T-47D breast
# [53] = system: TK-10 renal
# [54] = system: U251 CNS
# [55] = system: UACC-257 melanoma
# [56] = system: UACC-62 melanoma
# [57] = system: UO-31 renal
# [58] = system: NCI-H226 lung
compound,measurement,setting,value
Oc1ccc2ccccc2c1CN(Cc1c(O)ccc2ccccc12)C1CCCCC1,TGI,[1],30.7 µM
same,TGI,[2],71.6 µM
same,TGI,[3],44.4 µM
same,TGI,[4],34.7 µM
same,TGI,[5],42.7 µM
same,TGI,[6],33.6 µM
same,TGI,[7],> 100 µM
same,TGI,[8],29.6 µM
same,TGI,[9],42.8 µM
same,TGI,[10],29.7 µM
same,TGI,[11],27.7 µM
same,TGI,[12],29.3 µM
same,TGI,[13],45.4 µM
same,TGI,[14],> 100 µM
same,TGI,[15],37.1 µM
same,TGI,[16],79 µM
same,TGI,[17],39.6 µM
same,TGI,[18],27.6 µM
same,TGI,[19],53.5 µM
same,TGI,[20],> 100 µM
same,TGI,[21],28.2 µM
same,TGI,[22],31.3 µM
same,TGI,[23],29.2 µM
same,TGI,[24],29.3 µM
same,TGI,[25],44.1 µM
same,TGI,[26],43.6 µM
same,TGI,[27],28.7 µM
same,TGI,[28],41.4 µM
same,TGI,[29],31.5 µM
same,TGI,[30],51 µM
same,TGI,[31],27.1 µM
same,TGI,[32],54.9 µM
same,TGI,[33],41.7 µM
same,TGI,[34],47.1 µM
same,TGI,[35],> 100 µM
same,TGI,[36],44.6 µM
same,TGI,[37],38.2 µM
same,TGI,[38],97.2 µM
same,TGI,[39],46.7 µM
same,TGI,[40],27 µM
same,TGI,[41],> 100 µM
same,TGI,[42],29.4 µM
same,TGI,[43],67.1 µM
same,TGI,[44],51.9 µM
same,TGI,[45],28.1 µM
same,TGI,[46],> 100 µM
same,TGI,[47],28 µM
same,TGI,[48],90.2 µM
same,TGI,[49],50.5 µM
same,TGI,[50],83.9 µM
same,TGI,[51],48.9 µM
same,TGI,[52],> 100 µM
same,TGI,[53],36.9 µM
same,TGI,[54],45.2 µM
same,TGI,[55],28.7 µM
same,TGI,[56],32.9 µM
same,TGI,[57],38.1 µM
O=c1[nH]c(=O)n(C2CC(O)C(CO)O2)c2nc3cc4ccccc4cc3nc12 (centres undefined),TGI,[1],> 100 µM
same,TGI,[2],> 100 µM
same,TGI,[3],> 100 µM
same,TGI,[4],> 100 µM
same,TGI,[5],> 100 µM
same,TGI,[6],> 100 µM
same,TGI,[7],> 100 µM
same,TGI,[8],> 100 µM
same,TGI,[9],> 100 µM
same,TGI,[10],> 100 µM
same,TGI,[11],> 100 µM
same,TGI,[12],> 100 µM
same,TGI,[13],> 100 µM
same,TGI,[14],> 100 µM
same,TGI,[15],> 100 µM
same,TGI,[16],> 100 µM
same,TGI,[18],> 100 µM
same,TGI,[19],> 100 µM
same,TGI,[20],> 100 µM
same,TGI,[21],> 100 µM
same,TGI,[22],> 100 µM
same,TGI,[23],> 100 µM
same,TGI,[24],> 100 µM
same,TGI,[25],> 100 µM
same,TGI,[26],> 100 µM
same,TGI,[27],> 100 µM
same,TGI,[28],> 100 µM
same,TGI,[58],> 100 µM
same,TGI,[29],> 100 µM
same,TGI,[30],> 100 µM
same,TGI,[31],> 100 µM
same,TGI,[32],> 100 µM
same,TGI,[33],> 100 µM
same,TGI,[34],> 100 µM
same,TGI,[35],> 100 µM
same,TGI,[36],> 100 µM
same,TGI,[37],> 100 µM
same,TGI,[38],> 100 µM
same,TGI,[39],> 100 µM
same,TGI,[40],> 100 µM
same,TGI,[41],> 100 µM
same,TGI,[42],> 100 µM
same,TGI,[43],> 100 µM
same,TGI,[44],> 100 µM
same,TGI,[45],> 100 µM
same,TGI,[46],> 100 µM
same,TGI,[47],> 100 µM
same,TGI,[48],> 100 µM
same,TGI,[49],> 100 µM
same,TGI,[50],> 100 µM
same,TGI,[51],> 100 µM
same,TGI,[52],> 100 µM
same,TGI,[53],> 100 µM
same,TGI,[54],> 100 µM
same,TGI,[55],> 100 µM
same,TGI,[56],> 100 µM
same,TGI,[57],> 100 µM
CN(Cc1cnc2c(n1)C(N)=NN(N)N2)c1ccc(C(=O)NC(CCP(=O)(O)O)C(=O)O)cc1 (centres undefined),TGI,[2],> 100 µM
same,TGI,[3],> 100 µM
same,TGI,[4],> 100 µM
same,TGI,[5],> 89.6 µM
same,TGI,[6],> 100 µM
same,TGI,[7],> 100 µM
same,TGI,[8],> 100 µM
same,TGI,[9],> 100 µM
same,TGI,[10],> 100 µM
same,TGI,[11],> 100 µM
same,TGI,[13],> 100 µM
same,TGI,[14],> 100 µM
same,TGI,[15],> 100 µM
same,TGI,[16],> 100 µM
same,TGI,[17],> 38.8 µM
same,TGI,[18],> 100 µM
same,TGI,[19],> 100 µM
same,TGI,[20],> 100 µM
same,TGI,[21],> 100 µM
same,TGI,[22],> 100 µM
same,TGI,[23],> 100 µM
same,TGI,[24],> 100 µM
same,TGI,[25],> 100 µM
same,TGI,[26],> 100 µM
same,TGI,[27],> 100 µM
same,TGI,[28],> 100 µM
same,TGI,[58],> 54 µM
same,TGI,[29],> 100 µM
same,TGI,[30],> 100 µM
same,TGI,[31],> 100 µM
same,TGI,[32],> 55.8 µM
same,TGI,[33],> 100 µM
same,TGI,[34],> 100 µM
same,TGI,[36],> 58.3 µM
same,TGI,[37],> 100 µM
same,TGI,[38],> 100 µM
same,TGI,[39],71.8 µM
same,TGI,[40],> 100 µM
same,TGI,[41],> 100 µM
same,TGI,[42],> 100 µM
same,TGI,[43],> 100 µM
same,TGI,[44],> 100 µM
same,TGI,[45],> 100 µM
same,TGI,[46],> 100 µM
same,TGI,[47],> 100 µM
same,TGI,[48],> 100 µM
same,TGI,[49],> 100 µM
same,TGI,[50],> 100 µM
same,TGI,[51],> 100 µM
same,TGI,[52],> 100 µM
same,TGI,[53],> 100 µM
same,TGI,[54],> 100 µM
same,TGI,[55],> 100 µM
same,TGI,[56],> 100 µM
same,TGI,[57],> 100 µM
